PubChem BioAssay (NCI)
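The compound was tested at five concentrations on cells cultured in 96-well plates, with a 48-hour exposure period. At the GI50, growth is halved. Definition used: TGI = concentration required for complete inhibition of growth.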

Assays:
Assay in all cases: NCI-60 cell line screen, 48 h
TK-10 renal = system: TK-10 renal
SF-268 CNS = system: SF-268 CNS
OVCAR-4 ovarian = system: OVCAR-4 ovarian
NCI/ADR-RES ovarian = system: NCI/ADR-RES ovarian
OVCAR-8 ovarian = system: OVCAR-8 ovarian
SN12C renal = system: SN12C renal
NCI-H522 lung = system: NCI-H522 lung
A498 renal = system: A498 renal
NCI-H460 lung = system: NCI-H460 lung
NCI-H226 lung = system: NCI-H226 lung
A549 NSCLC = system: A549 NSCLC
PC-3 prostate = system: PC-3 prostate
M14 melanoma = system: M14 melanoma
U251 CNS = system: U251 CNS
786-0 renal = system: 786-0 renal
SR leukemia = system: SR leukemia
MDA-MB-231 breast = system: MDA-MB-231 breast
RXF 393 renal = system: RXF 393 renal
SF-295 CNS = system: SF-295 CNS
MOLT-4 leukemia = system: MOLT-4 leukemia
MDA-MB-435 = system: MDA-MB-435
ACHN renal = system: ACHN renal
K-562 leukemia = system: K-562 leukemia
SNB-19 CNS = system: SNB-19 CNS
CAKI-1 renal = system: CAKI-1 renal
MCF7 breast = system: MCF7 breast
T-47D breast = system: T-47D breast
NCI-H23 lung = system: NCI-H23 lung
SK-MEL-2 melanoma = system: SK-MEL-2 melanoma
HCC-2998 colon = system: HCC-2998 colon
HOP-62 NSCLC = system: HOP-62 NSCLC
MALME-3M melanoma = system: MALME-3M melanoma
SK-MEL-5 melanoma = system: SK-MEL-5 melanoma
IGROV1 ovarian = system: IGROV1 ovarian
EKVX NSCLC = system: EKVX NSCLC
HT29 colon = system: HT29 colon
HS 578T breast = system: HS 578T breast
SK-OV-3 ovarian = system: SK-OV-3 ovarian
UO-31 renal = system: UO-31 renal
SK-MEL-28 melanoma = system: SK-MEL-28 melanoma
HOP-92 NSCLC = system: HOP-92 NSCLC
HL-60(TB) leukemia = system: HL-60(TB) leukemia
UACC-257 melanoma = system: UACC-257 melanoma
HCT-15 colon = system: HCT-15 colon
UACC-62 melanoma = system: UACC-62 melanoma
OVCAR-5 ovarian = system: OVCAR-5 ovarian
CCRF-CEM leukemia = system: CCRF-CEM leukemia
SNB-75 CNS = system: SNB-75 CNS
HCT-116 colon = system: HCT-116 colon
SF-539 CNS = system: SF-539 CNS
OVCAR-3 ovarian = system: OVCAR-3 ovarian
LOX IMVI melanoma = system: LOX IMVI melanoma
SW-620 colon = system: SW-620 colon
RPMI-8226 leukemia = system: RPMI-8226 leukemia
DU-145 prostate = system: DU-145 prostate
COLO 205 colon = system: COLO 205 colon
KM12 colon = system: KM12 colon

CC1(C)CC[C@]2(C(=O)Nc3ccccn3)CC[C@]3(C)C(=CC[C@@H]4[C@@]5(C)C/C(=C/c6ccncc6)C(=O)C(C)(C)[C@@H]5CC[C@]43C)[C@@H]2C1
GI50 (TK-10 renal): 5.75 µM | TGI (TK-10 renal): > 100 µM | GI50 (SF-268 CNS): 9.45 µM | TGI (SF-268 CNS): > 100 µM | GI50 (OVCAR-4 ovarian): 2.9 µM | TGI (OVCAR-4 ovarian): > 100 µM | GI50 (NCI/ADR-RES ovarian): 4.48 µM | TGI (NCI/ADR-RES ovarian): > 100 µM | GI50 (OVCAR-8 ovarian): 3.76 µM | TGI (OVCAR-8 ovarian): > 100 µM | GI50 (SN12C renal): 2.57 µM | TGI (SN12C renal): > 100 µM | GI50 (NCI-H522 lung): 2.09 µM | TGI (NCI-H522 lung): 27.7 µM | GI50 (A498 renal): 2.05 µM | TGI (A498 renal): 5.18 µM | GI50 (NCI-H460 lung): 1.51 µM | TGI (NCI-H460 lung): 3.9 µM | GI50 (NCI-H226 lung): 1.97 µM | TGI (NCI-H226 lung): 6.04 µM | GI50 (A549 NSCLC): 2 µM | TGI (A549 NSCLC): > 100 µM | GI50 (PC-3 prostate): 0.624 µM | TGI (PC-3 prostate): > 100 µM | GI50 (M14 melanoma): 2.85 µM | TGI (M14 melanoma): > 100 µM | GI50 (U251 CNS): 1.82 µM | TGI (U251 CNS): 4.32 µM | GI50 (786-0 renal): 2.88 µM | TGI (786-0 renal): > 100 µM | GI50 (SR leukemia): 0.702 µM | TGI (SR leukemia): > 100 µM | GI50 (MDA-MB-231 breast): 2.92 µM | TGI (MDA-MB-231 breast): 19.5 µM | GI50 (RXF 393 renal): 1.67 µM | TGI (RXF 393 renal): 3.37 µM | GI50 (SF-295 CNS): 2.37 µM | TGI (SF-295 CNS): 29.3 µM | GI50 (MOLT-4 leukemia): 2.27 µM | TGI (MOLT-4 leukemia): > 100 µM | GI50 (MDA-MB-435): 2.58 µM | TGI (MDA-MB-435): > 100 µM | GI50 (ACHN renal): 2.08 µM | TGI (ACHN renal): 5.98 µM | GI50 (K-562 leukemia): 1.78 µM | TGI (K-562 leukemia): > 100 µM | GI50 (SNB-19 CNS): 5.82 µM | TGI (SNB-19 CNS): > 100 µM | GI50 (CAKI-1 renal): 2.69 µM | TGI (CAKI-1 renal): > 100 µM | GI50 (MCF7 breast): 0.938 µM | TGI (MCF7 breast): 15.3 µM | GI50 (T-47D breast): 1.68 µM | TGI (T-47D breast): > 100 µM | GI50 (NCI-H23 lung): 3.18 µM | TGI (NCI-H23 lung): > 100 µM | GI50 (SK-MEL-2 melanoma): 3.63 µM | TGI (SK-MEL-2 melanoma): > 100 µM | GI50 (HCC-2998 colon): 1.81 µM | TGI (HCC-2998 colon): 4.82 µM | GI50 (HOP-62 NSCLC): 4.41 µM | TGI (HOP-62 NSCLC): > 100 µM | GI50 (MALME-3M melanoma): 2.25 µM | TGI (MALME-3M melanoma): 6.15 µM | GI50 (SK-MEL-5 melanoma): 1.59 µM | TGI (SK-MEL-5 melanoma): 3.1 µM | GI50 (IGROV1 ovarian): 3.12 µM | TGI (IGROV1 ovarian): 67.3 µM | GI50 (EKVX NSCLC): 3.8 µM | TGI (EKVX NSCLC): > 100 µM | GI50 (HT29 colon): 2.17 µM | TGI (HT29 colon): > 100 µM | GI50 (HS 578T breast): 2.96 µM | TGI (HS 578T breast): > 100 µM | GI50 (SK-OV-3 ovarian): > 100 µM | TGI (SK-OV-3 ovarian): > 100 µM | GI50 (UO-31 renal): 1.38 µM | TGI (UO-31 renal): 2.74 µM | GI50 (SK-MEL-28 melanoma): 2.28 µM | TGI (SK-MEL-28 melanoma): 6.59 µM | GI50 (HOP-92 NSCLC): 1.24 µM | TGI (HOP-92 NSCLC): 7 µM | GI50 (HL-60(TB) leukemia): 1.24 µM | TGI (HL-60(TB) leukemia): 5.68 µM | GI50 (UACC-257 melanoma): 2.2 µM | TGI (UACC-257 melanoma): > 100 µM | GI50 (HCT-15 colon): 1.85 µM | TGI (HCT-15 colon): 6.63 µM | GI50 (UACC-62 melanoma): 1.85 µM | TGI (UACC-62 melanoma): 8.89 µM | GI50 (OVCAR-5 ovarian): 4.14 µM | TGI (OVCAR-5 ovarian): > 100 µM | GI50 (CCRF-CEM leukemia): 2.3 µM | TGI (CCRF-CEM leukemia): > 100 µM

N#C/C(=C\c1ccc(Br)cc1)n1nnc2c(F)cccc21
GI50 (TK-10 renal): 2.36 µM | TGI (TK-10 renal): 6.5 µM | GI50 (SF-268 CNS): 3.11 µM | TGI (SF-268 CNS): > 100 µM | GI50 (OVCAR-8 ovarian): 2.87 µM | TGI (OVCAR-8 ovarian): > 100 µM | GI50 (SNB-75 CNS): 0.043 µM | TGI (SNB-75 CNS): 5.04 µM | GI50 (A498 renal): 1.36 µM | TGI (A498 renal): 4.65 µM | GI50 (HCT-116 colon): 0.503 µM | TGI (HCT-116 colon): 1.94 µM | GI50 (A549 NSCLC): 1.93 µM | TGI (A549 NSCLC): > 100 µM | GI50 (PC-3 prostate): 0.472 µM | TGI (PC-3 prostate): 2.05 µM | GI50 (786-0 renal): 1.29 µM | TGI (786-0 renal): 2.91 µM | GI50 (SR leukemia): 0.441 µM | TGI (SR leukemia): > 100 µM | GI50 (MDA-MB-231 breast): 1.28 µM | TGI (MDA-MB-231 breast): 4.17 µM | GI50 (SF-539 CNS): 2.21 µM | TGI (SF-539 CNS): 5.45 µM | GI50 (MOLT-4 leukemia): 2.48 µM | TGI (MOLT-4 leukemia): > 100 µM | GI50 (OVCAR-3 ovarian): 0.275 µM | TGI (OVCAR-3 ovarian): 0.845 µM | GI50 (ACHN renal): 1.04 µM | TGI (ACHN renal): 2.38 µM | GI50 (LOX IMVI melanoma): 1.41 µM | TGI (LOX IMVI melanoma): 2.77 µM | GI50 (K-562 leukemia): 0.386 µM | TGI (K-562 leukemia): > 100 µM | GI50 (MCF7 breast): 0.768 µM | TGI (MCF7 breast): > 100 µM | GI50 (T-47D breast): 0.353 µM | TGI (T-47D breast): 4.78 µM | GI50 (HCC-2998 colon): 1.71 µM | TGI (HCC-2998 colon): 3.18 µM | GI50 (MALME-3M melanoma): 1.44 µM | TGI (MALME-3M melanoma): 3.93 µM | GI50 (IGROV1 ovarian): 0.715 µM | TGI (IGROV1 ovarian): 3.02 µM | GI50 (EKVX NSCLC): 1.75 µM | TGI (EKVX NSCLC): > 100 µM | GI50 (HS 578T breast): 3.39 µM | TGI (HS 578T breast): > 100 µM | GI50 (UO-31 renal): 1.04 µM | TGI (UO-31 renal): 2.24 µM | GI50 (HOP-92 NSCLC): 0.156 µM | TGI (HOP-92 NSCLC): 4.48 µM | GI50 (HL-60(TB) leukemia): 2.45 µM | TGI (HL-60(TB) leukemia): > 100 µM | GI50 (UACC-62 melanoma): 0.697 µM | TGI (UACC-62 melanoma): 2.17 µM | GI50 (CCRF-CEM leukemia): 0.657 µM | TGI (CCRF-CEM leukemia): 3.13 µM

CCC(=O)OC1=C(c2ccccc2)Sc2ccc(Cl)cc2-n2cccc21
TGI (TK-10 renal): > 10 µM | TGI (SW-620 colon): > 10 µM | TGI (SF-268 CNS): > 10 µM | TGI (OVCAR-4 ovarian): > 10 µM | TGI (RPMI-8226 leukemia): > 10 µM | TGI (OVCAR-8 ovarian): > 10 µM | TGI (SN12C renal): > 10 µM | TGI (SNB-75 CNS): > 10 µM | TGI (DU-145 prostate): > 10 µM | TGI (A549 NSCLC): > 10 µM | TGI (PC-3 prostate): > 10 µM | TGI (M14 melanoma): > 10 µM | TGI (786-0 renal): > 10 µM | TGI (SR leukemia): > 10 µM | TGI (MDA-MB-231 breast): > 10 µM | TGI (RXF 393 renal): > 10 µM | TGI (SF-295 CNS): > 10 µM | TGI (MOLT-4 leukemia): > 10 µM | TGI (MDA-MB-435): 5.28 µM | TGI (LOX IMVI melanoma): > 10 µM | TGI (K-562 leukemia): > 10 µM | TGI (CAKI-1 renal): > 10 µM | TGI (MCF7 breast): > 10 µM | TGI (T-47D breast): > 10 µM | TGI (NCI-H23 lung): > 10 µM | TGI (HCC-2998 colon): > 10 µM | TGI (HOP-62 NSCLC): > 10 µM | TGI (MALME-3M melanoma): > 10 µM | TGI (SK-MEL-5 melanoma): > 10 µM | TGI (IGROV1 ovarian): > 10 µM | TGI (EKVX NSCLC): > 10 µM | TGI (HT29 colon): > 10 µM | TGI (COLO 205 colon): > 10 µM | TGI (SK-OV-3 ovarian): > 10 µM | TGI (KM12 colon): > 10 µM | TGI (SK-MEL-28 melanoma): > 10 µM | TGI (HOP-92 NSCLC): > 10 µM | TGI (HL-60(TB) leukemia): > 10 µM | TGI (UACC-257 melanoma): > 10 µM | TGI (HCT-15 colon): > 10 µM | TGI (UACC-62 melanoma): > 10 µM | TGI (CCRF-CEM leukemia): > 10 µM
